The target in the first assay is T1, human GLP-1 receptor (Homo sapiens, UniProt P43220).
T1 construct: expressed in transfected cells
T1 sequence (P43220 24-463): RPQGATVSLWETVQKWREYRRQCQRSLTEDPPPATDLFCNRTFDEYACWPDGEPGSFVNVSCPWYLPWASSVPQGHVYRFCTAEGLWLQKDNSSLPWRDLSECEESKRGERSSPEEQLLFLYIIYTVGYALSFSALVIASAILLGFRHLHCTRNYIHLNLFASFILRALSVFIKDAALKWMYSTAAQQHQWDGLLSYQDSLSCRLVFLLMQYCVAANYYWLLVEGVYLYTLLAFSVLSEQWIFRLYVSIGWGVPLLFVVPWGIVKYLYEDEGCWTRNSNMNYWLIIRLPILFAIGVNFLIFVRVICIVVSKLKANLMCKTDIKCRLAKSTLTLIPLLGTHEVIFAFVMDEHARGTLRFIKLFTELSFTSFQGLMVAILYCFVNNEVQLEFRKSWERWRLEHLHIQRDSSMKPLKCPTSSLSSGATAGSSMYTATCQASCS
Nature of the assay: GLP-1R cAMP assay (HitHunter cAMP accumulation). It is filed as cell-based. As to conditions: CHO cells stably overexpressing human GLP-1 receptor, 30 min, 20-point dose response in triplicate. As for the experimental part: CAMP accumulation was measured in Chinese hamster ovary (CHO) cells stably overexpressing the human GLP-1 receptor using the HitHunter CAMP Assay for Small Molecules Kit (Eurofins). Briefly, cells were grown in Ham's F12 Nutrient Mix with 10% FBS, and lifted with Cell Dissociation Buffer, Enzyme free, PBS based (ThermoFisher). […] The anti-cAMP antibody reagent was then added to cells at a 1:2 ratio and 5 μL of mixture was seeded in 384-well small volume white assay plates, at 10,000 cells/well. Cells were then treated with 50 nL compound using an ECHO 550 acoustic dispenser (Labcyte) in a 20-point dose response format in triplicate for 30 min. Cells were then lysed, and detection reagents added according to the manufacturer's protocol. After overnight incubation, luminescence was measured using a Perkin Elmer Envision plate reader. Dose response curves were analyzed using GraphPad Prism 9.0.
On the technique in general: Changes in cAMP serve as a functional read-out for many G protein-coupled receptors.
In turn, `N#Cc1ccc(OCc2nccc(OC3C[C@H]4CC[C@@H](C3)N4Cc3nc4ccc(C(=O)O)cc4n3C[C@@H]3CCO3)n2)c(F)c1` (single isomer, unassigned) [Compound 488] had an EC50 of 50 to 500 nM.
In the case of `CCn1cncc1Cn1c(CN2CCC([C@@H](F)c3cccc(COc4ccc(Cl)cc4C#N)c3)CC2)nc2ccc(C(=O)O)cc21` (single isomer, unassigned) [Example 260], the EC50 is under 50 nM.
On the same count and under the same terms, the figure for `CCn1cncc1Cn1c(CN2CCC([C@H](F)c3cccc(COc4ccc(Cl)cc4C#N)c3)CC2)nc2ccc(C(=O)O)cc21` (single isomer, unassigned) [Example 263] is under 50 nM.
Same read-out and setting: the figure for `O=C(O)c1ccc2nc(CN3CCC(Oc4cccc(COc5ccc(F)cc5Cl)c4)CC3)n(C[C@@H]3CCO3)c2c1` [Compound 207] is under 50 nM; for `CN(c1ccnc(COc2ccc(Cl)cc2F)n1)C1CCN(Cc2nc3ccc(C(=O)O)cc3n2C[C@@H]2CCO2)CC1` [Compound 382, 2-{[4-({2-[(4-chloro-2-fluorophenoxy)methyl]pyrimidin-4-yl}(methyl)amino)piperidin-1-yl]methyl}-1-{[(2S)-oxetan-2-yl]methyl}-1H-1,3-benzodiazole-6-carboxylic acid] it is under 50 nM; for `O=C(O)c1ccc2nc(CN3CCC(Nc4ccnc(COc5ccc(Cl)cc5F)n4)CC3)n(C[C@@H]3CCO3)c2c1` [Example 381, (S)-2-((4-((2-((4-Chloro-2-fluorophenoxy)methyl)pyrimidin-4-yl)amino)piperidin-1-yl)methyl)-1-(oxetan-2-ylmethyl)-1H-benzo[d]imidazole-6-carboxylic acid] it is under 50 nM.

The subject of the next assay is cynomolgus monkeys (Macaca fascicularis). Nature of the assay: Intravenous glucose tolerance test (IVGTT) in cynomolgus monkeys. In kind it is in vivo. As to conditions: fasted, test article 6 mg/mL IV bolus 1-6 min before IV glucose 0.5 g/kg, plasma insulin 0-60 min, FIG. 1. On the procedure: Intravenous Glucose Tolerance Test (IVGTT) in Cynomolgus Monkeys
Aged ([…]) cynomolgus monkeys (Macaca fascicularis; N=4-5/test article) were fasted overnight and anesthetized with ketamine prior to the intravenous glucose tolerance test (IVGTT). The test articles were formulated at 6 mg/mL in vehicle (5% polyethylene glycol 400: 95% (12% (w/v) sulfobutylether-β-cyclodextrin in deionized water) (v/v)]) and administered by intravenous bolus into a peripheral vein 1-6 minutes prior to the IVGTT. The IVGTT was initiated by administration of an IV bolus of glucose (0.5 g/kg as a 50% glucose solution). Blood samples were collected from a peripheral vein 0, 1, 3, 5, 10, 20, 40 and 60 minutes upon completion of the IV bolus glucose injection. The blood samples were collected directly into potassium ethylene diamine tetra-acetic acid tubes and plasma separated by centrifugation at 2,500 g for 10 minutes within 30 minutes of collection. The plasma from all time points was analyzed for insulin concentrations (μU/mL) using a Cobas e411 Immunology analyzer. Insulin area-under-the-curve (AUC) was calculated using GraphPad Prism software (v 9).
Turning to `CCn1cncc1Cn1c(CN2CCC(Oc3ccnc(COc4ccc(Cl)cc4C#N)c3)CC2)nc2ccc(C(=O)O)cc21` [Compound 171, 2-{[4-({2-[(4-chloro-2-cyanophenoxy)methyl]pyridin-4-yl}oxy)piperidin-1-yl]methyl}-1-[(1-ethyl-1H-imidazol-5-yl)methyl]-1H-1,3-benzodiazole-6-carboxylic acid], the “insulin secretion / insulin AUC” value was “an increase in insulin secretion was observed”.
On to `O=C(O)c1ccc2nc(CN3CCC(Oc4ccnc(COc5ccc(F)cc5Cl)n4)CC3)n(C[C@@H]3CCO3)c2c1` [Compound 326], for which the “insulin secretion / insulin AUC” value is listed as “an increase in insulin secretion was observed”.
For `O=C(O)c1ccc2nc(CN3CCC(Oc4ccnc(COc5ccc(C(F)(F)F)cc5F)n4)CC3)n(C[C@@H]3CCO3)c2c1` [Compound 338], the “insulin secretion / insulin AUC” value was “an increase in insulin secretion was observed”.
`CCn1cncc1Cn1c(CN2CCC(Oc3ccnc(COc4ccc(Cl)cc4Cl)c3)CC2)nc2ccc(C(=O)O)cc21` [Example 145, 2-((4-((2-((2,4-Dichlorophenoxy)methyl)pyridin-4-yl)oxy)piperidin-1-yl)methyl)-1-((1-ethyl-1H-imidazol-5-yl)methyl)-1H-benzo[d]imidazole-6-carboxylic acid]: the “insulin secretion / insulin AUC” value is “an increase in insulin secretion was observed”.
Still for that read-out and setting: the entry for `C[C@H]1C[C@@H](Oc2ccnc(COc3ccc(C#N)cc3F)n2)CCN1Cc1nc2ccc(C(=O)O)cc2n1C[C@@H]1CCO1` [Example 313, 2-(((2S,4S)-4-((2-((4-Cyano-2-fluorophenoxy)methyl)pyrimidin-4-yl)oxy)-2-methylpiperidin-1-yl)methyl)-1-(((S)-oxetan-2-yl)methyl)-1H-benzo[d]imidazole-6-carboxylic acid] is “an increase in insulin secretion was observed”.
For the compound `C[C@H]1C[C@@H](Oc2ccnc(COc3ccc(F)cc3C#N)n2)CCN1Cc1nc2ccc(C(=O)O)cc2n1C[C@@H]1CCO1` [Example 355, 2-(((2S,4S)-4-((2-((2-cyano-4-fluorophenoxy)methyl)pyrimidin-4-yl)oxy)-2-methylpiperidin-1-yl)methyl)-1-(((S)-oxetan-2-yl)methyl)-1H-benzo[d]imidazole-6-carboxylic acid], the “insulin secretion / insulin AUC” value was “an increase in insulin secretion was observed”.

By EC50 is commonly meant the concentration that produces a half-maximal response. A high value points to a less potent agent.

The values above are taken from patent US12459929B2 (Carmot Therapeutics Inc., priority 2021, dated 2025).
